# Experimental data: paper PMC5218480 (PLoS ONE, 2017)
# Tested on: MV-4-11 cells
# Assay: Gene expression microarray analysis (Affymetrix PrimeView) and GSEA
# Type: cell-based, human
# Set-up: RFU PODN (11730768_x_at) / Fold change /veh PODN (11730768_x_at) / RFU LINC00158 (11744669_a_at) / Fold change /veh LINC00158 (11744669_a_at) / RFU DUSP10 (11751237_a_at) / Fold change /veh DUSP10 (11751237_a_at) / RFU ID3 (11757404_x_at) / Fold change /veh ID3 (11757404_x_at) / RFU PLEKHG5 (11737974_s_at) / Fold change /veh PLEKHG5 (11737974_s_at) / RFU LRRC4B (11730491_at) / Fold change /veh LRRC4B (11730491_at) / RFU GIMAP4 (11747438_a_at) / Fold change /veh GIMAP4 (11747438_a_at) / RFU KRT8 (11758183_x_at) / Fold change /veh KRT8 (11758183_x_at) / RFU CNN1 (11734310_a_at) / Fold change /veh CNN1 (11734310_a_at) / RFU VPS37D (11726825_at) / Fold change /veh VPS37D (11726825_at) / RFU C10orf10 (11716522_x_at) / Fold change /veh C10orf10 (11716522_x_at) / RFU KIR2DL2 /// KIR2DL4 /// KIR2DL5A /// KIR2DL5B /// KIR2DS1 /// KIR2DS2 /// KIR2DS3 /// KIR2DS4 /// KIR3DL3 /// KIR3DL3 /// KIR3DS1 (11738374_at) / Fold change /veh KIR2DL2 /// KIR2DL4 /// KIR2DL5A /// KIR2DL5B /// KIR2DS1 /// KIR2DS2 /// KIR2DS3 /// KIR2DS4 /// KIR3DL3 /// KIR3DL3 /// KIR3DS1 (11738374_at) / RFU C1QL1 (11718748_at) / Fold change /veh C1QL1 (11718748_at) / RFU TMPRSS4 (11747572_a_at) / Fold change /veh TMPRSS4 (11747572_a_at) / RFU HAMP (11756126_x_at) / Fold change /veh HAMP (11756126_x_at) / RFU RNFT2 (11725882_a_at) / Fold change /veh RNFT2 (11725882_a_at) / RFU NR4A2 (11747474_a_at) / Fold change /veh NR4A2 (11747474_a_at) / RFU ABCC12 (11746883_a_at) / Fold change /veh ABCC12 (11746883_a_at) / RFU TMEM136 (11760407_x_at) / Fold change /veh TMEM136 (11760407_x_at) / RFU CLDN22 /// WWC2 (11732394_at) / Fold change /veh CLDN22 /// WWC2 (11732394_at) / RFU HLA-DPB1 (11760878_x_at) / Fold change /veh HLA-DPB1 (11760878_x_at) / RFU SPINT1 (11716480_a_at) / Fold change /veh SPINT1 (11716480_a_at) / RFU GAP43 (11754022_s_at) / Fold change /veh GAP43 (11754022_s_at) / RFU A4GNT (11735810_at) / Fold change /veh A4GNT (11735810_at) / RFU PRB3 (11715151_x_at) / Fold change /veh PRB3 (11715151_x_at) / RFU TUBB4B (11761932_at) / Fold change /veh TUBB4B (11761932_at) / RFU CAPN14 (11732068_a_at) / Fold change /veh CAPN14 (11732068_a_at) / RFU TMCC2 (11721928_a_at) / Fold change /veh TMCC2 (11721928_a_at) / RFU IRGQ (11745062_a_at) / Fold change /veh IRGQ (11745062_a_at) / RFU FAM174B (11720279_a_at) / Fold change /veh FAM174B (11720279_a_at) / RFU TMPRSS4 (11748680_a_at) / Fold change /veh TMPRSS4 (11748680_a_at) / RFU FAM212B (11763350_a_at) / Fold change /veh FAM212B (11763350_a_at) / RFU PLEKHG5 (11743358_a_at) / Fold change /veh PLEKHG5 (11743358_a_at) / RFU ZSCAN30 (11745921_a_at) / Fold change /veh ZSCAN30 (11745921_a_at) / RFU CMKLR1 (11741424_a_at) / Fold change /veh CMKLR1 (11741424_a_at) / RFU LOC101060620 /// MAPK8IP1 (11723275_at) / Fold change /veh LOC101060620 /// MAPK8IP1 (11723275_at) / RFU SPTSSB (11747773_x_at) / Fold change /veh SPTSSB (11747773_x_at) / RFU PRSS12 (11739890_at) / Fold change /veh PRSS12 (11739890_at) / RFU BIN1 (11741810_x_at) / Fold change /veh BIN1 (11741810_x_at) / RFU WNT11 (11732464_a_at) / Fold change /veh WNT11 (11732464_a_at) / RFU C10orf10 (11716521_a_at) / Fold change /veh C10orf10 (11716521_a_at) / RFU C5orf56 (11738089_at) / Fold change /veh C5orf56 (11738089_at) / RFU CYB561 (11721691_x_at) / Fold change /veh CYB561 (11721691_x_at) / RFU ANKRD19P (11752326_a_at) / Fold change /veh ANKRD19P (11752326_a_at) / RFU OR2T12 /// OR2T33 /// OR2T8 (11738714_s_at) / Fold change /veh OR2T12 /// OR2T33 /// OR2T8 (11738714_s_at) / RFU VCAN (11748164_a_at) / Fold change /veh VCAN (11748164_a_at) / RFU JSRP1 (11732532_at) / Fold change /veh JSRP1 (11732532_at) / RFU KRTAP10-11 (11738290_x_at) / Fold change /veh KRTAP10-11 (11738290_x_at) / RFU MYO3A (11730013_a_at) / Fold change /veh MYO3A (11730013_a_at) / RFU EBF3 (11725865_a_at) / Fold change /veh EBF3 (11725865_a_at) / RFU CAMK2N1 (11719241_x_at) / Fold change /veh CAMK2N1 (11719241_x_at) / RFU C5orf56 (11738088_a_at) / Fold change /veh C5orf56 (11738088_a_at) / RFU OLFML3 (11715873_a_at) / Fold change /veh OLFML3 (11715873_a_at) / RFU LOC100653217 /// NTM (11731650_a_at) / Fold change /veh LOC100653217 /// NTM (11731650_a_at) / RFU MAPK11 (11762145_a_at) / Fold change /veh MAPK11 (11762145_a_at) / RFU FIZ1 (11724087_x_at) / Fold change /veh FIZ1 (11724087_x_at) / RFU OASL (11726364_x_at) / Fold change /veh OASL (11726364_x_at) / RFU SOX15 (11748057_x_at) / Fold change /veh SOX15 (11748057_x_at) / RFU CD79A (11719716_a_at) / Fold change /veh CD79A (11719716_a_at) / RFU HIST1H1D (11736915_at) / Fold change /veh HIST1H1D (11736915_at) / RFU CASKIN2 (11723855_a_at) / Fold change /veh CASKIN2 (11723855_a_at) / RFU LOC730098 (11760151_x_at) / Fold change /veh LOC730098 (11760151_x_at) / RFU OR4N2 (11742367_at) / Fold change /veh OR4N2 (11742367_at) / RFU PRRT2 (11749266_a_at) / Fold change /veh PRRT2 (11749266_a_at) / RFU SNX32 (11753110_a_at) / Fold change /veh SNX32 (11753110_a_at) / RFU CDHR5 (11726645_a_at) / Fold change /veh CDHR5 (11726645_a_at) / RFU RCAN1 (11760418_a_at) / Fold change /veh RCAN1 (11760418_a_at) / RFU FAM167A (11723789_a_at) / Fold change /veh FAM167A (11723789_a_at) / RFU FAM26E (11764081_at) / Fold change /veh FAM26E (11764081_at) / RFU ISYNA1 (11749810_s_at) / Fold change /veh ISYNA1 (11749810_s_at) / RFU ACY1 (11761880_at) / Fold change /veh ACY1 (11761880_at) / RFU 11764098_at / Fold change /veh 11764098_at / RFU SAMD14 (11745864_x_at) / Fold change /veh SAMD14 (11745864_x_at) / RFU NPB (11741838_a_at) / Fold change /veh NPB (11741838_a_at) / RFU TMPRSS6 (11731388_a_at) / Fold change /veh TMPRSS6 (11731388_a_at) / RFU KRTAP10-2 (11738614_at) / Fold change /veh KRTAP10-2 (11738614_at) / RFU ARHGAP8 /// PRR5-ARHGAP8 (11727945_x_at) / Fold change /veh ARHGAP8 /// PRR5-ARHGAP8 (11727945_x_at) / RFU KRTAP5-7 /// NADSYN1 (11734609_at) / Fold change /veh KRTAP5-7 /// NADSYN1 (11734609_at) / RFU RASL12 (11751679_a_at) / Fold change /veh RASL12 (11751679_a_at) / RFU CDKN2B (11736163_a_at) / Fold change /veh CDKN2B (11736163_a_at) / RFU PRF1 (11729649_at) / Fold change /veh PRF1 (11729649_at) / RFU, ZNF638 /// ZNF638-IT1 / Fold change vs veh, ZNF638 /// ZNF638-IT1 / RFU, PANK3 / Fold change vs veh, PANK3 / RFU, SH3YL1 / Fold change vs veh, SH3YL1 / RFU, ZEB2 / Fold change vs veh, ZEB2 / RFU, NRIP1 / Fold change vs veh, NRIP1 / RFU, PTTG1IP / Fold change vs veh, PTTG1IP / RFU, CAPN2 / Fold change vs veh, CAPN2 / RFU, MED14 / Fold change vs veh, MED14 / RFU, SNORA58 / Fold change vs veh, SNORA58 / RFU, C1orf63 / Fold change vs veh, C1orf63 / RFU, LRRFIP1 / Fold change vs veh, LRRFIP1 / RFU, NDUFAF7 / Fold change vs veh, NDUFAF7 / RFU, SLC12A2 / Fold change vs veh, SLC12A2 / RFU, IBTK / Fold change vs veh, IBTK / RFU, ESF1 / Fold change vs veh, ESF1 / Fold change vs veh, TMEM50B / RFU, TAOK1 / Fold change vs veh, TAOK1 / RFU, ACBD3 / Fold change vs veh, ACBD3 / RFU, TMA16 / Fold change vs veh, TMA16 / RFU, RWDD3 / Fold change vs veh, RWDD3 / RFU, BCAT1 / Fold change vs veh, BCAT1 / RFU, EDEM3 / Fold change vs veh, EDEM3 / RFU, TMEM33 / Fold change vs veh, TMEM33 / RFU, WDR75 / Fold change vs veh, WDR75 / RFU, AHCTF1 / Fold change vs veh, AHCTF1 / RFU, TFRC / Fold change vs veh, TFRC / RFU, ZDHHC17 / Fold change vs veh, ZDHHC17 / RFU, NOM1 / Fold change vs veh, NOM1 / RFU, ARL8B / Fold change vs veh, ARL8B / RFU, ZBTB11 / Fold change vs veh, ZBTB11 / RFU, TAMM41 / Fold change vs veh, TAMM41 / RFU, KIAA1704 /// LOC100996395 / Fold change vs veh, KIAA1704 /// LOC100996395 / RFU, ING1 / Fold change vs veh, ING1 / RFU, TRMT61B / Fold change vs veh, TRMT61B / RFU, FUBP3 / Fold change vs veh, FUBP3 / RFU, TP53 / Fold change vs veh, TP53 / RFU, TNKS2 / Fold change vs veh, TNKS2 / RFU, ZFP14 / Fold change vs veh, ZFP14 / RFU, ACTR2 / Fold change vs veh, ACTR2 / RFU, PPP3R1 / Fold change vs veh, PPP3R1 / RFU, PIK3R1 / Fold change vs veh, PIK3R1 / RFU, HNRNPA1 / Fold change vs veh, HNRNPA1 / RFU, RNF170 / Fold change vs veh, RNF170 / RFU, ZNF28 / Fold change vs veh, ZNF28 / RFU, RNGTT / Fold change vs veh, RNGTT / RFU, OGT / Fold change vs veh, OGT / RFU, BRD1 / Fold change vs veh, BRD1 / RFU, MARS / Fold change vs veh, MARS / RFU, ZNF655 / Fold change vs veh, ZNF655 / RFU, FAHD1 / Fold change vs veh, FAHD1 / RFU, BDP1 / Fold change vs veh, BDP1 / RFU, LRRCC1 / Fold change vs veh, LRRCC1 / RFU, ARID1A / Fold change vs veh, ARID1A / RFU, ZNF146 / Fold change vs veh, ZNF146 / RFU, ZNF330 / Fold change vs veh, ZNF330 / RFU, GPN3 / Fold change vs veh, GPN3 / RFU, C9orf123 / Fold change vs veh, C9orf123 / RFU, N4BP2L2 / Fold change vs veh, N4BP2L2 / RFU, ARFIP1 / Fold change vs veh, ARFIP1 / RFU, FAM179B / Fold change vs veh, FAM179B / RFU, BCL10 / Fold change vs veh, BCL10 / RFU, UHRF1BP1L / Fold change vs veh, UHRF1BP1L / RFU, BET1 / Fold change vs veh, BET1 / RFU, CNOT2 / Fold change vs veh, CNOT2 / RFU, ZNF268 / Fold change vs veh, ZNF268 / Fold change vs veh, ZNF507 / RFU, DGCR2 / Fold change vs veh, DGCR2 / RFU, WDSUB1 / Fold change vs veh, WDSUB1 / Fold change vs veh, HSP90B1 /// MIR3652 / RFU, ADSS / Fold change vs veh, ADSS / RFU, GK / Fold change vs veh, GK / RFU, ZNF148 / Fold change vs veh, ZNF148 / RFU, TAF9 / Fold change vs veh, TAF9 / RFU, SLC1A5 / Fold change vs veh, SLC1A5 / RFU, SLMO2 / Fold change vs veh, SLMO2 / RFU, ABCC4 / Fold change vs veh, ABCC4 / RFU, LOC101060439 /// RAP1B / Fold change vs veh, LOC101060439 /// RAP1B / RFU, RFX7 / Fold change vs veh, RFX7 / RFU, GTPBP10 / Fold change vs veh, GTPBP10 / RFU, CNEP1R1 / Fold change vs veh, CNEP1R1 / RFU, BIVM-ERCC5 /// ERCC5 / Fold change vs veh, BIVM-ERCC5 /// ERCC5 / RFU, ILF3 / Fold change vs veh, ILF3 / RFU 11762660_at / Fold change /veh 11762660_at / RFU VCAN (11757783_s_at) / Fold change /veh VCAN (11757783_s_at) / RFU DDX43 (11728927_at) / Fold change /veh DDX43 (11728927_at) / RFU KRT8 (11758188_x_at) / Fold change /veh KRT8 (11758188_x_at) / RFU NKD1 (11759106_at) / Fold change /veh NKD1 (11759106_at) / RFU SRD5A1 (11742802_a_at) / Fold change /veh SRD5A1 (11742802_a_at) / RFU TPSAB1 /// TPSB2 (11721975_s_at) / Fold change /veh TPSAB1 /// TPSB2 (11721975_s_at) / RFU GSTM3 (11746129_a_at) / Fold change /veh GSTM3 (11746129_a_at) / RFU IL23R (11737362_x_at) / Fold change /veh IL23R (11737362_x_at) / RFU TMEM51 (11727254_a_at) / Fold change /veh TMEM51 (11727254_a_at) / RFU PIWIL2 (11732686_x_at) / Fold change /veh PIWIL2 (11732686_x_at) / RFU ORM1 (11744905_x_at) / Fold change /veh ORM1 (11744905_x_at) / RFU CCDC152 (11743942_at) / Fold change /veh CCDC152 (11743942_at) / RFU ECM1 (11717891_a_at) / Fold change /veh ECM1 (11717891_a_at) / RFU IL23R (11748794_a_at) / Fold change /veh IL23R (11748794_a_at) / RFU TNFAIP8L3 (11732012_x_at) / Fold change /veh TNFAIP8L3 (11732012_x_at) / RFU MBOAT4 (11741988_at) / Fold change /veh MBOAT4 (11741988_at) / RFU 11764193_at / Fold change /veh 11764193_at / RFU TMEM53 (11763286_at) / Fold change /veh TMEM53 (11763286_at) / RFU MAGEB2 (11727129_at) / Fold change /veh MAGEB2 (11727129_at) / RFU TMEM200A (11744735_a_at) / Fold change /veh TMEM200A (11744735_a_at) / RFU CCDC152 (11751479_a_at) / Fold change /veh CCDC152 (11751479_a_at) / RFU FAM211A (11726209_a_at) / Fold change /veh FAM211A (11726209_a_at) / RFU RGS16 (11746705_a_at) / Fold change /veh RGS16 (11746705_a_at) / RFU VCAN (11755009_s_at) / Fold change /veh VCAN (11755009_s_at) / RFU RHOB (11743442_s_at) / Fold change /veh RHOB (11743442_s_at) / RFU RGS16 (11720943_a_at) / Fold change /veh RGS16 (11720943_a_at) / RFU RGS16 (11720944_at) / Fold change /veh RGS16 (11720944_at) / RFU, VPS4B / Fold change vs veh, VPS4B / RFU, CREB1 / Fold change vs veh, CREB1 / RFU, DNAJC13 / Fold change vs veh, DNAJC13 / RFU, GNAQ / Fold change vs veh, GNAQ / RFU, CDK5R1 / Fold change vs veh, CDK5R1 / RFU, ZRANB3 / Fold change vs veh, ZRANB3 / RFU, CUL4A / Fold change vs veh, CUL4A / RFU, CCNY / Fold change vs veh, CCNY / RFU, UFL1 / Fold change vs veh, UFL1 / RFU, COG3 / Fold change vs veh, COG3 / RFU, DIAPH2 / Fold change vs veh, DIAPH2 / RFU, SKA2 / Fold change vs veh, SKA2 / RFU, AFF3 / Fold change vs veh, AFF3 / RFU, LMF1 / Fold change vs veh, LMF1 / RFU, IPO11 / Fold change vs veh, IPO11 / RFU, DFFB / Fold change vs veh, DFFB / RFU, FOXP1 / Fold change vs veh, FOXP1 / RFU, CARD8 / Fold change vs veh, CARD8 / RFU, STRN3 / Fold change vs veh, STRN3 / RFU, ADK / Fold change vs veh, ADK / RFU, RASSF2 / Fold change vs veh, RASSF2 / RFU, WIPF1 / Fold change vs veh, WIPF1 / RFU, LARP1B / Fold change vs veh, LARP1B / RFU, RASA1 / Fold change vs veh, RASA1 / RFU, RB1 / Fold change vs veh, RB1 / RFU, PPFIA1 / Fold change vs veh, PPFIA1 / RFU, MAT2A / Fold change vs veh, MAT2A / RFU, CCT5 / Fold change vs veh, CCT5 / RFU, WDR92 / Fold change vs veh, WDR92 / RFU, CUX1 / Fold change vs veh, CUX1 / RFU, TTC7A / Fold change vs veh, TTC7A / RFU, TMEM135 / Fold change vs veh, TMEM135 / RFU, DEPTOR / Fold change vs veh, DEPTOR / RFU, CPM / Fold change vs veh, CPM / RFU, DNAJB6 / Fold change vs veh, DNAJB6 / RFU, CACNA2D3 / Fold change vs veh, CACNA2D3 / RFU, DTX4 / Fold change vs veh, DTX4 / RFU, TFCP2 / Fold change vs veh, TFCP2 / RFU, GMCL1 /// GMCL1P1 / Fold change vs veh, GMCL1 /// GMCL1P1 / RFU, AEBP2 / Fold change vs veh, AEBP2 / RFU, SNHG1 /// SNORD22 /// SNORD25 /// SNORD26 /// SNORD27 /// SNORD28 /// SNORD29 /// SNORD31 / Fold change vs veh, SNHG1 /// SNORD22 /// SNORD25 /// SNORD26 /// SNORD27 /// SNORD28 /// SNORD29 /// SNORD31 / Fold change (Aza/veh), C12orf56 (ProbeSet 11735607_a_at) / Fold change (ACY-1035/veh), C12orf56 (ProbeSet 11735607_a_at) / Fold change (Aza/veh), FGFR1OP (ProbeSet 11751329_s_at) / Fold change (ACY-1035/veh), FGFR1OP (ProbeSet 11751329_s_at) / Fold change (Aza/veh), VPS36 (ProbeSet 11739960_a_at) / Fold change (ACY-1035/veh), VPS36 (ProbeSet 11739960_a_at) / RFU SYPL1 (11715823_x_at) / Fold change /veh SYPL1 (11715823_x_at) / RFU IGFBP7 (11715501_s_at) / Fold change /veh IGFBP7 (11715501_s_at) / RFU REEP3 (11722064_at) / Fold change /veh REEP3 (11722064_at) / RFU IGLL1 (11728026_x_at) / Fold change /veh IGLL1 (11728026_x_at): dose or concentration left out as unconfirmed
# Settings: MV-4-11 cells, 48 hours
smiles,measurement,value
Nc1ccc(-c2cccs2)cc1NC(=O)c1ccc2c(c1)cc(C1CC1)n2CCN1CCOCC1 [ACY-1035],RFU TMEM51 (11727254_a_at),14.11 RFU
